In patent publication US8906909B2 (Curis, Inc., priority 2009, dated 2014):
pIC50: −log10 of the molar value. Each block holds one compound with its values, some of them ahead of it.

Columns and labels:
HCT-118 cells = assay: Cell proliferation assay Method A (ATPlite), HCT-118; assay type: cell-based; conditions: 72 hours, read-out: antiproliferative activity IC50, HCT-118
How it was run: (§1)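 Cells seeded at 5,000–10,000 per well with graded compound concentrations and cultured 72 h in 0.5% fetal bovine serum. Growth inhibition read as cellular ATP content by firefly luciferase luminescence (ATPlite).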

UACC-893 cells = assay: Cell proliferation assay Method B, UACC-893; assay type: cell-based; conditions: Homo sapiens, Breast, 72 hours, read-out: antiproliferative activity IC50, UACC-893
Description: (§2) Cancer cell lines were plated at 5,000 to 10,000 per well in 96-well flat bottomed plates with various concentration of compounds. The cells were incubated with compounds for 72 hours in the presence of 0.5% of fetal bovine serum. Growth inhibition was accessed by adenosine triphosphate (ATP) content assay using Promega CellTiter-Glo kit. Promega CellTiter-Glo kit is an ATP monitoring system based on firefly luciferase. Briefly, 16 μl of mammalian cell lysis and substrate solution was added to 84 μl of culture medium per well to lyse the cells and stabilize the ATP. The mixture was shaken and incubated for 30 minutes and subsequently the luminescence was measured.

Sk-Mel-28 cells = assay: Cell proliferation assay Method A (ATPlite), Sk-Mel-28; assay type: cell-based; conditions: Homo sapiens, 72 hours, read-out: antiproliferative activity IC50, Sk-Mel-28
How it was run: as §1

PI3Kγ (p120γ) = target: T1, PI3Kγ (p120γ) (Homo sapiens, UniProt P48736); assay: PI3Kγ TR-FRET (HTRF) assay; assay type: biochemical; conditions: 10 μM ATP
T1 construct: His tag (N); made in house; host or cells: Baculovirus-infected Sf9 insect cells
Source text: The proteins are purified by one-step affinity chromatography using glutathione-agarose.

PI3Kδ (p110δ/p85α) = target: T2, PI3Kδ (p110δ/p85α) (Homo sapiens, UniProt O00329); assay: PI3Kδ fluorescence polarization assay; assay type: biochemical; conditions: 10 μM ATP
T2 construct: N-terminal histidine-tagged recombinant full-length human p110δ; His tag (N); made in house; host or cells: Baculovirus-infected Sf9 insect cells
Description: The proteins are purified by one-step affinity chromatography using glutathione-agarose. […] The reaction product was then mixed with a PIP3 detector protein and the fluorescent PIP3 probe. Polarization (mP) values decrease as fluorescent probe binding to the PIP3 detector is displaced by PIP3 produced by enzymatic activity and the amount of unbound fluorescent probe in the mixture increases. Polarization degrees (mP) value was determined using microplate reader with background subtraction.

H1993 cells = assay: Cell proliferation assay Method A (ATPlite), H1993; assay type: cell-based; conditions: Homo sapiens, NCI-H1993, 72 hours, read-out: antiproliferative activity IC50, H1993
How it was run: as §1

MOLT-4 cells = assay: Cell proliferation assay Method B, MOLT-4; assay type: cell-based; conditions: Homo sapiens, ALL, 72 hours, read-out: antiproliferative activity IC50, MOLT-4
Description: as §2

SKBr3 cells = assay: Cell proliferation assay Method B, SKBr3; assay type: cell-based; conditions: Homo sapiens, SK-BR-3, Breast, 72 hours, read-out: antiproliferative activity IC50, SKBr3
Description: as §2

A375 cells = assay: Cell proliferation assay Method B, A375; assay type: cell-based; conditions: Homo sapiens, A-375; Melanoma; Method B; 72 hours; read-out: antiproliferative activity IC50, A375
Description: as §2

SUP-B15 cells = assay: Cell proliferation assay Method B, SUP-B15; assay type: cell-based; conditions: Homo sapiens, ALL, 72 hours, read-out: antiproliferative activity IC50, SUP-B15
Description: as §2

H460 cells = assay: Cell proliferation assay Method B, H460; assay type: cell-based; conditions: Homo sapiens, NCI-H460, NSCLC, 72 hours, read-out: antiproliferative activity IC50, H460
Description: as §2

OPM-2 cells = assay: Cell proliferation assay Method B, OPM-2; assay type: cell-based; conditions: Homo sapiens, Multiple Myeloma, 72 hours, read-out: antiproliferative activity IC50, OPM-2
Description: as §2

CFPAC-1 cells = assay: Cell proliferation assay Method B, CFPAC-1; assay type: cell-based; conditions: Homo sapiens, Pancreas, 72 hours, read-out: antiproliferative activity IC50, CFPAC-1
Description: as §2

LN-Cap cells = assay: Cell proliferation assay Method B, LN-Cap; assay type: cell-based; conditions: Homo sapiens, LNCaP, Prostate, 72 hours, read-out: antiproliferative activity IC50, LN-Cap
Description: as §2

H358 cells = assay: Cell proliferation assay Method B, H358; assay type: cell-based; conditions: Homo sapiens, NCI-H358, NSCLC, 72 hours, read-out: antiproliferative activity IC50, H358
Description: as §2

Calu6 cells = assay: Cell proliferation assay Method B, Calu6; assay type: cell-based; conditions: Homo sapiens, Calu-6, NSCLC, 72 hours, read-out: antiproliferative activity IC50, Calu6
Description: as §2

T-84 cells = assay: Cell proliferation assay Method B, T-84; assay type: cell-based; conditions: Homo sapiens, T84, Colon, 72 hours, read-out: antiproliferative activity IC50, T-84
Description: as §2

SW1990 cells = assay: Cell proliferation assay Method B, SW1990; assay type: cell-based; conditions: Homo sapiens, Pancreas, 72 hours, read-out: antiproliferative activity IC50, SW1990
Description: as §2

H292 cells = assay: Cell proliferation assay Method B, H292; assay type: cell-based; conditions: Homo sapiens, NCI-H292, NSCLC, 72 hours, read-out: antiproliferative activity IC50, H292
Description: as §2

MiaPaca1 cells = assay: Cell proliferation assay Method B, MiaPaca1; assay type: cell-based; conditions: Pancreas, 72 hours, read-out: antiproliferative activity IC50, MiaPaca1
Description: as §2

CaPan2 cells = assay: Cell proliferation assay Method B, CaPan2; assay type: cell-based; conditions: Homo sapiens, Capan-2, Pancreas, 72 hours, read-out: antiproliferative activity IC50, CaPan2
Description: as §2

SW620 cells = assay: Cell proliferation assay Method B, SW620; assay type: cell-based; conditions: Homo sapiens, SW-620, Colon, 72 hours, read-out: antiproliferative activity IC50, SW620
Description: as §2

SWI-116 cells = assay: Cell proliferation assay Method B, SWI-116; assay type: cell-based; conditions: Colon, 72 hours, read-out: antiproliferative activity IC50, SWI-116
Description: as §2

T2 sequence (O00329 whole entry): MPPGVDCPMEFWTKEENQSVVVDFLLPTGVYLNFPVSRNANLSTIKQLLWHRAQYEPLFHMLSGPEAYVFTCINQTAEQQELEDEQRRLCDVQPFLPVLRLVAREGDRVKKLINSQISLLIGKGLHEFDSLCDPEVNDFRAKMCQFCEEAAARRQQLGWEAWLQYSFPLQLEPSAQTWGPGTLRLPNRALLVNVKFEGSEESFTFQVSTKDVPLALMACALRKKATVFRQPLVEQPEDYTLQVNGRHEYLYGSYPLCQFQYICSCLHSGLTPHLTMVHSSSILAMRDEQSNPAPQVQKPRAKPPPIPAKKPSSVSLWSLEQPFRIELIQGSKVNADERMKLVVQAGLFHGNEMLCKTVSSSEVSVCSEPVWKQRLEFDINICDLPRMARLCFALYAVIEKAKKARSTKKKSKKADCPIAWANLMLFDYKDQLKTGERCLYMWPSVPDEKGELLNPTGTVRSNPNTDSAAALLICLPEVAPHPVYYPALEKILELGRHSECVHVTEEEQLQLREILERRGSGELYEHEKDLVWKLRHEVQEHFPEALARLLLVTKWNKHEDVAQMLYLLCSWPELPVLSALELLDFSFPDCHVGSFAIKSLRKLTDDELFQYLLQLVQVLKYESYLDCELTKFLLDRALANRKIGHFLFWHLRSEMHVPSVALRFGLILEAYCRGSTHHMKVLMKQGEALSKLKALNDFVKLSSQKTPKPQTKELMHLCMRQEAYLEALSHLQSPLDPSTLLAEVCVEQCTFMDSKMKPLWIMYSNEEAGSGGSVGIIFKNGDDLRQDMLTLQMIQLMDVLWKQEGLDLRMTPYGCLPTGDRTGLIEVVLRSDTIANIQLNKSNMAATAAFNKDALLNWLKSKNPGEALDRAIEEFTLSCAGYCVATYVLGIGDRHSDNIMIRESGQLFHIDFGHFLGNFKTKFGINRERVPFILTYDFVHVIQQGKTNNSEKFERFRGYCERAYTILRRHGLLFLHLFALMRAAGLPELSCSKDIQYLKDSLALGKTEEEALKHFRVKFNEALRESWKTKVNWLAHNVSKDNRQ
T2 sequence (P27986 whole entry partner): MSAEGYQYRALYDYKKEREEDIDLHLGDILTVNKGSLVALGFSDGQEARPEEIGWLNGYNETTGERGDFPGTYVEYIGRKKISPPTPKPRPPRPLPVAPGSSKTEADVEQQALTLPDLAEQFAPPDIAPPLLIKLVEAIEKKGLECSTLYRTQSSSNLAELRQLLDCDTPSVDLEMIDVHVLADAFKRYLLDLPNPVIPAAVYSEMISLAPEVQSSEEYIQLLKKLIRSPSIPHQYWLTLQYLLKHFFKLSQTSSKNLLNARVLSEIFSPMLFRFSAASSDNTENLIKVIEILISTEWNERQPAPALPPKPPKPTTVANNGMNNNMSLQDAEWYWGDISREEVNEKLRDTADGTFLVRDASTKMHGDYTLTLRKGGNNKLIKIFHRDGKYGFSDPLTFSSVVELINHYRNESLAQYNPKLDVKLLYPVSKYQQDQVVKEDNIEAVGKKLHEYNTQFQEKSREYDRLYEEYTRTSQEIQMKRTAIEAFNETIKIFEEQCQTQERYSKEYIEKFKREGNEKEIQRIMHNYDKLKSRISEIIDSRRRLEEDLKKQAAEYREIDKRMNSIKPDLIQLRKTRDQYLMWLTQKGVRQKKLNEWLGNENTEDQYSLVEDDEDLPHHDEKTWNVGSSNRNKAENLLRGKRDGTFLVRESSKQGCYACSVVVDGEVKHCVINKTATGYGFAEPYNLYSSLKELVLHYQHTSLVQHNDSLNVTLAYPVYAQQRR
T1 sequence (P48736 whole entry): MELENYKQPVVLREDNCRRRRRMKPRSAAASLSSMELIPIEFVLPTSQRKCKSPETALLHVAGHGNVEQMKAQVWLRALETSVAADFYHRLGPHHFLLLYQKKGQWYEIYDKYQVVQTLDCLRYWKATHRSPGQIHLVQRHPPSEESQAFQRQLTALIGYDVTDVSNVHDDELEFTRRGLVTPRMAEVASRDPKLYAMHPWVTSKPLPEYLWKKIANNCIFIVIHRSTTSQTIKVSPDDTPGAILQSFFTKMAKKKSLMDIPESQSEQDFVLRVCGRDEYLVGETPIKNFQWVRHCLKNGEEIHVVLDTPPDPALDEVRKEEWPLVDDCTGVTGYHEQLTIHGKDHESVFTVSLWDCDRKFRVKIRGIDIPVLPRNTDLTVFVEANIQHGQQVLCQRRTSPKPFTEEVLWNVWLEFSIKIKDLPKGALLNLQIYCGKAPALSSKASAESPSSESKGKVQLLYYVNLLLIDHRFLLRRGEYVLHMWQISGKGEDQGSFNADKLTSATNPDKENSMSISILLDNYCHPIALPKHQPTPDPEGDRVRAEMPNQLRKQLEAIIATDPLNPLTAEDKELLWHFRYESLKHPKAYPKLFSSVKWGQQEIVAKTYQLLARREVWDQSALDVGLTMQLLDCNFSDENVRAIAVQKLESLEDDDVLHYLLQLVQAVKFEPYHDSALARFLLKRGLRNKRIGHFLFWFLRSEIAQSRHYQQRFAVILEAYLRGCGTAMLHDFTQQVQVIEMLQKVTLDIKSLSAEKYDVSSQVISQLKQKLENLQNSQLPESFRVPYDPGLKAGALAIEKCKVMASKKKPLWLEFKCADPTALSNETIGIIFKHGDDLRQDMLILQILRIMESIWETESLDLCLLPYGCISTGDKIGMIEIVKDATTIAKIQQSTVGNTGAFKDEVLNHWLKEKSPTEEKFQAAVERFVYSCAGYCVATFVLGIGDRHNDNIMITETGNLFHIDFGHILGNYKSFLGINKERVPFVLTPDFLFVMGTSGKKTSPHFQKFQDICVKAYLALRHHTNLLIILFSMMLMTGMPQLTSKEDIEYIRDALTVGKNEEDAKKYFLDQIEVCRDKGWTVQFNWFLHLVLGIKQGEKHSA

pIC50 (HCT-118 cells): > 7.00
pIC50 (PI3Kγ (p120γ)): 6.00 to 7.00
pIC50 (PI3Kδ (p110δ/p85α)): > 7.00
pIC50 (H1993 cells): > 7.00
pIC50 (MOLT-4 cells): > 8.00
pIC50 (SKBr3 cells): 7.00 to 8.00
pIC50 (A375 cells): > 8.00
Compound: CN(Cc1cc2nc(-c3ccc(N)cc3)nc(N3CCOCC3)c2s1)c1ncc(C(=O)NO)cn1 [Compound 150, 2-(((2-(4-aminophenyl)-4-morpholinothieno[3,2-d]pyrimidin-6-yl)methyl)(methyl)amino)-N-hydroxypyrimidine-5-carboxamide]
pIC50 (UACC-893 cells): > 8.00
pIC50 (Sk-Mel-28 cells): > 7.00
pIC50 (SUP-B15 cells): > 8.00

Compound: CS(=O)(=O)N1CCN(Cc2cc3nc(-c4cccc5[nH]ncc45)nc(N4CCOCC4)c3s2)CC1 [GDC-0941, reference compound]
pIC50 (UACC-893 cells): 5.00 to 6.00
pIC50 (H460 cells): < 5.00
pIC50 (OPM-2 cells): 6.00 to 7.00
pIC50 (CFPAC-1 cells): < 5.00
pIC50 (LN-Cap cells): 6.00 to 7.00
pIC50 (H358 cells): 5.00 to 6.00
pIC50 (Calu6 cells): < 5.00
pIC50 (T-84 cells): 5.00 to 6.00
pIC50 (MOLT-4 cells): 6.00 to 7.00
pIC50 (SW1990 cells): < 5.00
pIC50 (SKBr3 cells): < 5.00
pIC50 (H292 cells): 5.00 to 6.00
pIC50 (A375 cells): 5.00 to 6.00
pIC50 (MiaPaca1 cells): < 5.00
pIC50 (CaPan2 cells): < 5.00
pIC50 (SW620 cells): < 5.00
pIC50 (SWI-116 cells): < 5.00
